These results are taken from PubChem BioAssay (NCI).

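Exposure lasted 48 hours, with cells grown in 96-well plates and compounds tested at five concentrations. At the GI50, growth is halved. TGI denotes the concentration required for complete inhibition of growth.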

Some test systems named below: KM12 colon; MCF7 breast; CAKI-1 renal; OVCAR-3 ovarian; IGROV1 ovarian; UO-31 renal; RXF 393 renal; NCI-H460 lung; HCC-2998 colon; K-562 leukemia.
Experiment in all cases: inhibition of tumour cell growth, NCI panel, 48 h

As for `O=C1C=CC(=O)C(CNc2ccc(C(=O)OCc3ccccc3)cc2)=C1`, the TGI in the assay with KM12 colon is 23.4 µM; with MCF7 breast, 18.5 µM; in the assay with CAKI-1 renal, 2.94 µM; in the assay on OVCAR-3 ovarian, 7.23 µM; with IGROV1 ovarian it was 12.6 µM; in the assay with UO-31 renal, 7.49 µM. Moreover, the TGI with RXF 393 renal was 8.54 µM; in the assay on NCI-H460 lung, 38.9 µM; with HCC-2998 colon it was 31.6 µM; in the assay on K-562 leukemia it was above 100 µM.
Turning to `O=S1SC(=S)C2C=CC=CC21` (configuration not stated), the TGI in the assay on KM12 colon, with MCF7 breast, with CAKI-1 renal, in the assay on OVCAR-3 ovarian, in the assay on IGROV1 ovarian and with UO-31 renal was above 100 µM throughout. Besides, the TGI in the assay on RXF 393 renal, in the assay on NCI-H460 lung, in the assay on HCC-2998 colon and with K-562 leukemia was above 100 µM in each case.
Consider `CCOP(=O)(OCC)OC1CC(n2cc(C)c(=O)n(C)c2=O)OC1CO[Si](C)(C)C(C)(C)C` (configuration not stated), for which the TGI in the assay on KM12 colon was above 100 µM; in the assay with MCF7 breast it was above 100 µM; in the assay on CAKI-1 renal it was above 100 µM; with OVCAR-3 ovarian, above 100 µM; with IGROV1 ovarian, above 100 µM; in the assay with UO-31 renal it was 7.15 µM. The TGI with RXF 393 renal, in the assay with NCI-H460 lung, with HCC-2998 colon and with K-562 leukemia was above 100 µM in each case.
In the case of `CCOC(=O)c1sc2ncnc(N)c2c1C`, the TGI in the assay with KM12 colon, in the assay with MCF7 breast, with CAKI-1 renal, with OVCAR-3 ovarian, in the assay with IGROV1 ovarian and with UO-31 renal was above 100 µM throughout. In addition, the TGI in the assay with RXF 393 renal is 71.3 µM; with NCI-H460 lung, above 100 µM; with HCC-2998 colon it was above 100 µM; in the assay with K-562 leukemia it was above 100 µM.
Take `O=C(O)CCCCCCCCC(=O)O`: the TGI in the assay with KM12 colon, in the assay with MCF7 breast, in the assay with CAKI-1 renal, with OVCAR-3 ovarian, in the assay on IGROV1 ovarian and with UO-31 renal was above 500 µM each time. The TGI in the assay with RXF 393 renal, in the assay on NCI-H460 lung, in the assay with HCC-2998 colon and in the assay on K-562 leukemia was above 500 µM each time.
With `COc1ccc([C@H]2C=[N+]([O-])O[C@H](OC3CCCC3)[C@@H]2OC(C)=O)cc1OC`, the TGI amounted to 72.4 µM with KM12 colon; 49.5 µM in the assay with MCF7 breast; 29.3 µM in the assay with CAKI-1 renal; 72.4 µM with OVCAR-3 ovarian; 52.4 µM with IGROV1 ovarian; 40.6 µM in the assay on UO-31 renal. Also, the TGI in the assay with RXF 393 renal is 29.8 µM; with NCI-H460 lung, above 100 µM; in the assay with HCC-2998 colon, 72.8 µM; with K-562 leukemia, above 100 µM.
As to `O=C(/C=C/c1ccc2c(c1)OCO2)Cc1nc2ccccc2[nH]c1=O`, the TGI is above 100 µM in the assay on KM12 colon; above 100 µM in the assay with MCF7 breast; 48.1 µM in the assay with CAKI-1 renal; 81.5 µM with OVCAR-3 ovarian; above 100 µM in the assay with IGROV1 ovarian; 50.9 µM in the assay with UO-31 renal. Also, the TGI in the assay on RXF 393 renal was 33.6 µM; in the assay with NCI-H460 lung, above 100 µM; with HCC-2998 colon it was 86.8 µM; in the assay on K-562 leukemia, above 100 µM.
Turning to `COc1ccc(OC)c2sc(N3C(=O)/C(=C/c4cccc([N+](=O)[O-])c4)N=C3c3ccccc3)nc12`, the TGI with KM12 colon was above 100 µM; in the assay on MCF7 breast, 48.9 µM; in the assay on CAKI-1 renal, above 100 µM; in the assay with OVCAR-3 ovarian, above 100 µM; with IGROV1 ovarian, above 100 µM; with UO-31 renal, above 100 µM. The TGI is above 100 µM with RXF 393 renal, above 100 µM in the assay on NCI-H460 lung, above 100 µM in the assay on HCC-2998 colon and 63.7 µM with K-562 leukemia.
Consider `C(=C\c1ccccc1)/COc1ccccc1C(N1CCOCC1)n1nc2ccccc2n1` (configuration not stated), for which the TGI in the assay with KM12 colon stood at 19.8 µM; with MCF7 breast it was 6.57 µM; in the assay with CAKI-1 renal it was 43.7 µM; with OVCAR-3 ovarian, 7.04 µM; with IGROV1 ovarian, 41.6 µM; in the assay with UO-31 renal, 31.6 µM. Further, the TGI in the assay on RXF 393 renal was 19.4 µM; with NCI-H460 lung it was above 51.3 µM; in the assay on HCC-2998 colon it was 34.8 µM; in the assay on K-562 leukemia, 4.26 µM.
Regarding `O=C1c2cccc(O)c2C(=O)c2c(OC3OC(CO)C(O)C(O)C3O)cccc21` (configuration not stated), the TGI in the assay on KM12 colon, in the assay with MCF7 breast, in the assay on CAKI-1 renal, with OVCAR-3 ovarian, in the assay with IGROV1 ovarian and in the assay with UO-31 renal was above 100 µM in each case. The TGI was 97.3 µM in the assay with RXF 393 renal, 59 µM with NCI-H460 lung, 59.6 µM with HCC-2998 colon and above 100 µM in the assay with K-562 leukemia.
As for `Nc1ccc(-c2nn3c(COc4ccc(Cl)cc4)nnc3s2)cc1`, the GI50 with KM12 colon was 99.5 µM; in the assay with MCF7 breast, 41 µM. In addition, the TGI in the assay on KM12 colon, with MCF7 breast, in the assay with CAKI-1 renal, in the assay on OVCAR-3 ovarian, in the assay on IGROV1 ovarian and in the assay with UO-31 renal was above 100 µM each time. The TGI in the assay with RXF 393 renal, in the assay with NCI-H460 lung, in the assay on HCC-2998 colon and with K-562 leukemia was above 100 µM throughout.
Consider `COc1cc(C2c3cc4c(cc3[C@@H](Nc3ccc5c(c3)OCO5)C3COC(=O)[C@H]23)OCO4)cc(OC)c1O` (some centres not stated), for which the TGI was 6.91 µM in the assay on KM12 colon; 10.1 µM in the assay with MCF7 breast; 1.43 µM with CAKI-1 renal; 22.2 µM in the assay with OVCAR-3 ovarian; 35 µM with IGROV1 ovarian; 9.7 µM with UO-31 renal. For the same compound, the TGI in the assay on RXF 393 renal was 6.15 µM; in the assay with NCI-H460 lung, 1.57 µM; in the assay with HCC-2998 colon, 3.42 µM; in the assay with K-562 leukemia, 9.74 µM.
